According to PubChem BioAssay (NCI):
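Method: 48-hour compound exposure of cells in 96-well plates, five concentrations, linear interpolation of endpoints. At the TGI there is no net growth.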

Columns and labels:
Test in all cases: DTP human tumour cell line panel, 48 h
[1] = tested on: HCT-116 colon
[2] = tested on: KM12 colon
[3] = tested on: LOX IMVI melanoma
[4] = tested on: HOP-62 NSCLC
[5] = tested on: MCF7 breast
[6] = tested on: OVCAR-5 ovarian
[7] = tested on: BT-549 breast
[8] = tested on: HS 578T breast
[9] = tested on: U251 CNS
[10] = tested on: SK-OV-3 ovarian
[11] = tested on: IGROV1 ovarian
[12] = tested on: HT29 colon
[13] = tested on: NCI-H460 lung
[14] = tested on: PC-3 prostate
[15] = tested on: MDA-MB-231 breast
[16] = tested on: OVCAR-8 ovarian
[17] = tested on: A549 NSCLC
[18] = tested on: MALME-3M melanoma
[19] = tested on: HCC-2998 colon
[20] = tested on: NCI-H522 lung
[21] = tested on: HOP-92 NSCLC
[22] = tested on: SW-620 colon
[23] = tested on: SNB-75 CNS
[24] = tested on: SN12C renal
[25] = tested on: NCI-H23 lung
[26] = tested on: UO-31 renal
[27] = tested on: UACC-62 melanoma
[28] = tested on: OVCAR-3 ovarian
[29] = tested on: SF-539 CNS
[30] = tested on: COLO 205 colon
[31] = tested on: ACHN renal
[32] = tested on: 786-0 renal
[33] = tested on: NCI-H226 lung
[34] = tested on: CCRF-CEM leukemia
[35] = tested on: SK-MEL-28 melanoma
[36] = tested on: MDA-N
[37] = tested on: UACC-257 melanoma
[38] = tested on: MDA-MB-435
[39] = tested on: SF-268 CNS
[40] = tested on: SNB-19 CNS
[41] = tested on: OVCAR-4 ovarian
[42] = tested on: NCI/ADR-RES ovarian
[43] = tested on: EKVX NSCLC
[44] = tested on: SR leukemia
[45] = tested on: T-47D breast
[46] = tested on: M14 melanoma
[47] = tested on: MOLT-4 leukemia
[48] = tested on: CAKI-1 renal
[49] = tested on: SK-MEL-5 melanoma
[50] = tested on: K-562 leukemia
[51] = tested on: HCT-15 colon
[52] = tested on: SK-MEL-2 melanoma
[53] = tested on: SF-295 CNS
[54] = tested on: TK-10 renal
[55] = tested on: RPMI-8226 leukemia
[56] = tested on: DU-145 prostate
[57] = tested on: RXF 393 renal
[58] = tested on: A498 renal
[59] = tested on: HL-60(TB) leukemia

Measured: TGI

C(/C=N/NC1=NCCCN1)=N\NC1=NCCCN1
> 100 µM: [1] | [2] | [3] | [4] | [5] | [6] | [7] | [8] | [9] | [10] | [11] | [12] | [13] | [14] | [15] | [16] | [17] | [18] | [19] | [20] | [21] | [22] | [23] | [24] | [25] | [26] | [27] | [28] | [29] | [30] | [31] | [32] | [33] | [34] | [35] | [36] | [37] | [38] | [39] | [40] | [41] | [42] | [43] | [44] | [45] | [46] | [47] | [48] | [49] | [50]

Cc1nc2ccc(N=NN(C)C)cc2[nH]1
> 100 µM: [1] | [2] | [3] | [4] | [5] | [6] | [51] | [7] | [52] | [8] | [9] | [10] | [11] | [12] | [53] | [13] | [54] | [14] | [15] | [55] | [16] | [17] | [18] | [19] | [20] | [56] | [22] | [23] | [24] | [26] | [27] | [57] | [28] | [30] | [31] | [32] | [33] | [34] | [35] | [36] | [37] | [38] | [39] | [40] | [41] | [42] | [43] | [44] | [45] | [46] | [47] | [48] | [58] | [49]

O=C(/C=C/c1ccccc1)CCC1C(=O)NC(=O)NC1=O
> 100 µM: [1] | [2] | [3] | [59] | [5] | [6] | [51] | [7] | [52] | [8] | [9] | [10] | [11] | [12] | [53] | [13] | [54] | [14] | [15] | [55] | [16] | [17] | [18] | [19] | [20] | [56] | [21] | [22] | [23] | [24] | [25] | [26] | [27] | [28] | [29] | [30] | [31] | [32] | [33] | [35] | [36] | [37] | [38] | [39] | [40] | [41] | [42] | [43] | [45] | [46] | [47] | [48] | [58] | [49] | [50]

Cc1ncc([N+](=O)[O-])n1CCNC(=O)CCn1ccnc1[N+](=O)[O-]
> 100 µM: [1] | [2] | [3] | [4] | [59] | [5] | [6] | [51] | [7] | [52] | [8] | [9] | [10] | [11] | [12] | [53] | [13] | [54] | [14] | [55] | [16] | [17] | [18] | [19] | [20] | [56] | [22] | [23] | [24] | [25] | [26] | [27] | [28] | [29] | [30] | [31] | [32] | [33] | [34] | [35] | [36] | [37] | [38] | [39] | [40] | [41] | [42] | [43] | [44] | [45] | [46] | [47] | [48] | [49] | [50]
